Values quoted from earlier work in patent US4285947A, “Aldehyde adducts of triamterene” (INTERx Research Corporation, priority 1980, dated 1981).
In brackets after ≈: the same amount, converted by molar mass.

Columns and labels:
[1] = not given; remark: listed apart in the source
[2] = following the recommended clinical dose

aqueous solubility: 45 µg/mL (≈ 178 µM)
solubility in lipid-like solvents [1]: limited solubility
plasma and urine concentration [2]: extremely low
Structure (SMILES): Nc1nc(N)c2nc(-c3ccccc3)c(N)nc2n1 [triamterene, 2,4,7-triamino-6-phenylpteridine]
